Patent US6576652B2, “Use of an angiotensin II receptor antagonist for the preparation of drugs to increase the survival rate of renal transplant patients” (Merck Sharp & Dohme (Italia) S.p.A., priority 1997, dated 2003)

Columns and labels:
conscious Dogs = test: Hypotensive effects before and after furosemide in conscious dogs; assay type: in vivo, dog; conditions: cumulative iv 0.3 to 3 mg/kg
Excerpt: The hypotensive effects of 2-butyl-4-chloro-1-[(2′-(1H-tetrazol-5-yl)biphenyl-4-yl)methyl]-5-hydroxymethylimidazole sodium salt were compared before and after furosemide administration to conscious Dogs.

[1] = test system: bilaterally nephrectomized Lewis rats transplanted with kidney from Fisher 344 donor rat; test: Chronic renal allograft failure rat model, 6 month follow-up; conditions: for FSGS % (range) / Animal survival / Proteinuria / SBP: end of 6 month follow-up; for Animal survival: allograft rats; for Proteinuria / SBP: mean ±SD
Method: Transplanted rats received cyclosporine (5 mg/kg/day i.m.) for the first 10 days to prevent acute rejection, and doses of antihypertensive drugs were adjusted to maintain blood pressure within the normal range.

[2] = test system: awake rats made hypertensive by ligation of the left renal artery; test: Antihypertensive effects in renal hypertensive rats; assay type: in vivo, rat; conditions: Table 1
Method: This procedure increases blood pressure by increasing renin production with consequent elevation of All levels. Compounds are administered orally at 100 mg/kg and/or intravenously via a cannula in the jugular vein at 10 mg/kg. Arterial blood pressure is continuously measured directly through a carotid artery cannula and recorded using a pressure transducer and a polygraph. Blood pressure levels after treatment are compared to pretreatment levels to determine the antihypertensive effects of the compounds (See Table 1). Compounds listed in Table 2 were tested in the same manner as described for Table 1, except that in the test for anti hypertensive effects in renal hypertensive rats, the compounds were administered orally at 30 mg/kg and intravenously at 3 mg/kg.

With `CCCCc1nc(Cl)c(CO)n1Cc1ccc(-c2ccccc2-c2nnn[nH]2)cc1.[Na]` [2-butyl-4-chloro-1-[(2′-(1H-tetrazol-5-yl)biphenyl-4-yl)methyl]-5-hydroxymethylimidazole sodium salt] the “Effect on blood pressure” value (conscious Dogs; after furosemide 10 mg/kg im at 18 and 2 hours before) was “caused a significant decrease”, the “Inhibition of pressor response to AII” value (conscious Dogs; after furosemide 10 mg/kg im) was “inhibited the pressor response to AII at the two higher doses” and the “Inhibition of pressor response to AII” value (conscious Dogs; before furosemide, 10 min post dose) was “effective in inhibiting the pressor response to AII”. For the same compound, the “Effect on blood pressure” value (conscious Dogs; normotensive conscious dogs, before furosemide, n=4) was “did not lower blood pressure”.
`CCOC(=O)C1=C(C)NC(C)=C(C(=O)OCC)C1c1ccccc1/C=C/C(=O)OC(C)(C)C` [Lacidipine, reference compound] was tested, and the “FSGS % (range)” value [1] was 15 (10-20) %, the Animal survival [1] was 34% and the Proteinuria [1] was 167 ± 26° mg/day. It also gave an SBP [1] of 125 ± 7 mm HG.
For `CCCCc1nc(Cl)c(CO)n1Cc1ccc(-c2ccccc2-c2nn[nH]n2)cc1` [Losartan, 2-n-butyl-4-chloro-5-hydroxymothyl-1-[(2′-(1H-tetrazol-5-yl)biphenil-4-yl)methyl]imidazole], the “Antihypertensive Effects in Renal Hypertensive Rats Intravenous Activity” value ([2]; intravenous, 10 mg/kg) was “+ (Significant decrease in blood pressure at 10, mg/kg or less)”, the “Antihypertensive Effects in Renal Hypertensive Rats Oral Activity” value ([2]; oral, 100 mg/kg) was “+ (Significant decrease in blood pressure at 100 mg/kg or less)” and the “Protection from chronic allograft injury and long-term animal survival” value ([1]; at comparable level of SBP control) was “effectively protects animals from chronic allograft injury”. The “FSGS % (range)” value [1] was 3 (0-10) %, the Animal survival [1] was 100% and the Proteinuria [1] was 71 ± 46 mg/day. The SBP [1] was 114 ± 12 mm HG.
